Here are results for three compounds from patent US8343760B2, “p53 activator peptides” (University of Maryland, Baltimore, priority 2008, dated 2013).

The subject of one test is p53 mutated SW480 cells. Nature of the test: Tumor cell killing, MTS OD and Trypan blue cell count, SW480. To be noted: SW480, added daily for three days.
The test system of test [1] is p53 wild type HCT116 cells. Nature of the test: Tumor cell killing, MTS OD and Trypan blue cell count, HCT116. Particulars: for reduction in HCT116 cell count: HCT116, added daily for three days; for reduction in cell viability as measured by MTS OD / reduction in cell number (Trypan blue cell count): HCT116, single dose, peptides 100 μg/ml, Nutlin-3 10 μg/ml; for reduction in cell viability as measured by MTS OD: after 3 days; for reduction in cell number (Trypan blue cell count): assessed after 3 days.
Description: (§1) Nutlin-3, a known small molecule inhibitor of the p53-MDM2 interaction, was given at 10 μg/ml as a positive control. Briefly, HCT116 cells (10,000/well) were plated overnight in McCoy's 5A modified medium (1×) supplemented with 1% pen-strep and 10% heat inactivated FBS. SW480 cells (10,000/well) were plated overnight in DMEM 1× medium, 1% pen-strep and 10% heat inactivated FBS (all reagents were from GIBCO). Cells were treated the next day with the indicated compound and then OD and cell count assessed after 3 days (left column) or peptides were added every day for three day and then OD and cell count were assessed (right column). OD was measured with the MTS kit (Cell titer 96 aqueous non-radioactive cell proliferation assay, Promega). Trypan blue incorporation was used to determine number of cells alive and dead.

The target of test [2] is T1, synMDMX (synthetic MDMX, amino acids 24-108 of the full length MDMX protein) (Homo sapiens, UniProt O15151).
T1 construct: synthetic MDMX—comprising amino acids 24-108 of the full length MDMX protein; made in house; host or cells: chemical synthesis (no expression host)
T1 sequence (O15151 24-108): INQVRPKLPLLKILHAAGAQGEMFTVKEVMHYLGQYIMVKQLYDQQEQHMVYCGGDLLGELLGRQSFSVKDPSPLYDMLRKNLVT
Description: SPR-based competition binding assay, synMDMX vs immobilized 15-29p53. To be noted: stoppin-1 relative to 15-29p53. The method, then:
Each curve is the mean of four independent measurements at 25° C. in 10 mM HEPES, 150 mM NaCl, 0.005% surfactant P20, pH 7.4. […] Specifically, ^(15-29)p53 was immobilized on a CM5 sensor chip for kinectic analysis of a fixed concentration of ^synMDM2 (50 nM) or ^synMDMX (100 nM) pre-incubated with varying concentrations of stoppin-1 at room temperature. ^(15-29)p53 was used as a control in the competition binding assay. […] To facilitate comparison, several other compounds were included in the panel: ^(15-29)p53, ^(17-28)p53, and Nutlin-3 (a racemic mixture of Nutlin-3a and Nutlin-3b).

The target in a further test is T2, synMDM2 (Homo sapiens, UniProt Q00987).
T2 construct: synthetic MDM2—comprising amino acids 25-109 of the full length MDM2 protein; made in house; host or cells: chemical synthesis (no expression host)
Nature of the test: Trp fluorescence spectroscopy on addition of synMDM2. It counts as binding. From the text:
Stoppin-1 was characterized using CD and fluorescence spectroscopy. […] The CD results are entirely consistent with the known structural features of BmBKTx1. As is the case with ^(15-29)p53, the only Trp residue engineered into stoppin-1 is fully solvent exposed in aqueous solution (buffer) as evidenced by the Trp fluorescence maximum (356 nm).
Stoppin-1 was derivatived by making five additional substitutions in its C-terminal region, resulting in a heavily cationic new peptide termed stoppin-2 of the following amino acid sequence: […] (SEQ ID NO:2). Specifically, Ser^18, Ser^19, Ile^23, Asn^24, and Ser^25 (BmBKTx1 numbering) were replaced with Arg, generating a miniprotein with eight cationic residues (including three existing Lys residues) clustered in the C-terminal β-hairpin region. Stoppin-2 was then chemically synthesized and oxidatively folded using procedures previously described herein. The correct folding of stoppin-2 was verified by disulfide mapping using trypsin/CNBr fragmentation coupled with LC-MS analysis. The interaction of stoppin-2 with MDM2/MDMX was characterized using fluorescence spectroscopy.

Where a SMILES comes first, the peptide text is derived from it. Bridges are numbered along the chain shown (N, C = ends).

T2 sequence (Q00987 25-109): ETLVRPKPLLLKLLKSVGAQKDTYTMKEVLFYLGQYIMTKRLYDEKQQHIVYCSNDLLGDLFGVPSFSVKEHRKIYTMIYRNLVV
Description for p53 mutated SW480 cells: as §1

Take `COc1ccc(C2=N[C@@H](c3ccc(Cl)cc3)[C@@H](c3ccc(Cl)cc3)N2C(=O)N2CCNC(=O)C2)c(OC(C)C)c1` [Nutlin-3, reference compound]: in the test with p53 mutated SW480 cells, the “effect against SW480” value is recorded as “ineffective”. Moreover, in test [1], the “reduction in HCT116 cell count” value is on record as about 90%, the “reduction in cell viability as measured by MTS OD” value is on record as “reduction in HTC cell viability” and the “reduction in cell number (Trypan blue cell count)” value (“reduction in cell number” for short) is “over 80%”.

Consider `CC[C@H](C)[C@@H]1NC(=O)[C@@H]2CSSC[C@H](N)C(=O)N[C@@H](Cc3ccc(O)cc3)C(=O)N[C@@H](CO)C(=O)N[C@@H](Cc3ccccc3)C(=O)N[C@@H](CC(=O)O)C(=O)N[C@H]3CSSC[C@H](NC(=O)[C@H](CCCCN)NC(=O)[C@H](CO)NC(=O)[C@H](CC(N)=O)NC1=O)C(=O)N[C@@H](CCCCN)C(=O)N[C@H](C(=O)O)CSSC[C@H](NC(=O)[C@H](CCCCN)NC(=O)[C@H](Cc1c[nH]c4ccccc14)NC(=O)[C@H](CC(C)C)NC3=O)C(=O)N[C@@H](CC(C)C)C(=O)N[C@@H](C)C(=O)N[C@@H](CCSC)C(=O)NCC(=O)N[C@@H](Cc1ccccc1)C(=O)N[C@@H](CO)C(=O)N[C@@H](CO)C(=O)NCC(=O)N[C@@H](CCCCN)C(=O)N2` [stoppin-1] (H-CYSFDCLWKCLAMGFSSGKCINSKCKC-OH; disulfide 1-20, 6-25, 10-27), for which the “fold lower binding affinity for synMDMX than 15-29p53” value in test [2] was “approximately 4 fold”. In addition, the “shift of Trp fluorescence maximum on addition of synMDM2 (from-to)” value on synMDM2 was 356 nm to 328 nm. Besides, the “shift of Trp fluorescence on addition of synMDM2” value on synMDM2 (from 356 nm to 328 nm) was 28 nm. In addition, the “effect against SW480” value in the test on p53 mutated SW480 cells was “ineffective”. Also, in test [1], the “reduction in cell number” value was “minimal”.

For the compound CYSFDCLWKCLAMGFRRGKCRRRKCKC [stoppin-2], the “shift of Trp fluorescence maximum on addition of synMDM2 (from-to)” value with synMDM2 is 356 nm to 328 nm. Besides, in the test with p53 mutated SW480 cells, the “effect against SW480” value is given as “ineffective”. For the same compound, in test [1], the “reduction in HCT116 cell count” value is given as “killed the cells quantitatively”, the “reduction in cell viability as measured by MTS OD” value is “reduction in HTC cell viability” and the “reduction in cell number” value is about 70%.
